Values quoted from earlier work as cited in patent US20040176344A1, “METHOD TO TREAT PATIENTS WITH AMYOTROPHIC LATERAL SCLEROSIS AND THE LIKE” (priority 2004, published 2004).

Assays:
[1] = tested on: mouse of ALS; details: mouse model of ALS; J Neurochem 2003
[2] = acute intermittent porphyria; Khanderia 1986

## Cl.O=C([O-])c1ccc(-c2c3nc(c(-c4ccc(C(=O)O)cc4)c4nc(c(-c5ccc(C(=O)O)cc5)c5ccc([nH]5)c(-c5ccc(C(=O)[O-])cc5)c5ccc2[n-]5)C=C4)C=C3)cc1.[Fe+3] [FeTCPP]
[1]
  effect on disease progression: helpful in slowing disease progression

## C=CC1=C(C)c2cc3[n-]c(cc4[n-]c(cc5nc(cc1n2)C(C)=C5C=C)c(C)c4CCC(=O)O)c(CCC(=O)O)c3C.O.[Fe+2] [hematin]
[2]
  adverse effect that precludes prophylactic use: causes circulatory collapse
